For this assay, the target named is T1, BACE1 enzyme (Homo sapiens, UniProt P56817).
T1 construct: The HEK293-9B.A1 cell line, which overexpresses the BACE1 enzyme, was derived from HEK293 cells; endogenous in cells; washed membrane pellet / cell homogenate
Briefly: Radioligand displacement assay with a radiolabeled BACE inhibitor on HEK293-9B.A1 cell homogenate. In kind it is binding. The note with it: HEK293-9B.A1 cell homogenate overexpressing BACE1, 1 nM radioligand, pH 5.0, 1.5 hr at 25° C., read-out: Activity Rating (activity based on IC50 values). How it is done: Radioligand displacement assays with a radiolabeled BACE inhibitor (WO 2004 013098, compound 3, where the methoxy group is substituted for C(^3H)3) were carried out using standard methods (Keen, M. (1999) in Receptor Binding Techniques (Walker, J. M. ed) p. 106 Humana Press, Totowa, N.J.). The HEK293-9B.A1 cell line, which overexpresses the BACE1 enzyme, was derived from HEK293 cells (Simmons, N. L. (1990) A cultured human renal epithelioid cell line responsive to vasoactive intestinal peptide. Exp. Physiol. 75:309-19.) by RAGE™ (Harrington, J. J. et al. (2001) Creation of genome-wide protein expression libraries using random activation of gene expression. Nat. Biotechnol. 19:440-5; U.S. Pat. No. 6,410,266 and 6,361,972). T225 flask cultures of HEK293-9B.A1 were grown to 80% confluency in DMEM supplemented with 2 mM L-glutamine, 10 μg/ml penecillin, 10 μg/ml streptomycin, 3 μg/ml puromycin, 100 nM methotrexate, and 10% fetal bovine serun (Invitrogen, Carlsbad, Calif.), harvested, and resuspended at 2×10^8 cells per 10 ml of lysis buffer consisting of 50 mM HEPES pH 7.0 containing a protease inhibitor cocktail of AEBSF 104 μM, aprotinin 80 nM, leupeptin 2 μM, bestatin 4 μM, pepstatin A 1.5 μM, and E-64 1.4 μM (0.1% of protease inhibitor cocktail P8340, Sigma-Aldrich, St. Louis, Mo.) at 4° C. The resuspended cells were homogenized using a Polytron (Brinkman, Westbury, N.Y.) at setting 6 for 10 sec., then centrifuged at 48,000×g for 10 min. The resulting pellet was washed by repeating the resuspension, homogenization and centrifugation steps. The final pellet was resuspended in buffer at 4° C. to yield a total protein concentration of 5 mg/ml, then aliquots were frozen in liquid nitrogen for further storage at −70° C. Immediately before carrying out a binding assay, an aliquot of cell homogenate was thawed and diluted to a concentration of 100 μg/ml in assay buffer consisting of 50 mM HEPES pH 5.0 and 0.1% CHAPSO. Assays were initiated in polypropylene 96-well plates (Costar, Cambridge, Mass.) by the addition of 200 μl of cell homogenate to 50 μl of assay buffer containing 1 nM radioligand (WO 2004 013098, compound 3, where the methoxy group is substituted for C(^3H)3: 80 Ci/mMol) and various concentrations of unlabelled compounds, and incubated for 1.5 hr. at 25° C. Separation of bound from free radioligand was by filtration on GFF glass fiber filters (Innotech Biosystems International, Lansing, Mich.) using an Innotech cell harvester. Filters were washed three times with 0.3 ml of phosphate buffered saline pH 7.0 at 4° C. and assessed for radioactivity using a Wallac 1450 Microbeta liquid scintillation counter (PerkinElmer, Boston, Mass.). Ki values of competing compounds were derived through Cheng-Prussoff correction of IC50 values calculated using XLfit (IDBS, Guildford, UK).
(Loss of bound radioactivity is the signal in a displacement assay; it reports binding, not function.)

This is an account of results in patent US7601751B2, “Indole acetic acid acyl guanidines as β-secretase inhibitors” (Bristol-Myers Squibb Company, priority 2005, dated 2009).

Molecules are shown by their SMILES.

Broadly, the IC50 is the concentration needed to halve the response being measured.

T1 sequence (P56817 46-501): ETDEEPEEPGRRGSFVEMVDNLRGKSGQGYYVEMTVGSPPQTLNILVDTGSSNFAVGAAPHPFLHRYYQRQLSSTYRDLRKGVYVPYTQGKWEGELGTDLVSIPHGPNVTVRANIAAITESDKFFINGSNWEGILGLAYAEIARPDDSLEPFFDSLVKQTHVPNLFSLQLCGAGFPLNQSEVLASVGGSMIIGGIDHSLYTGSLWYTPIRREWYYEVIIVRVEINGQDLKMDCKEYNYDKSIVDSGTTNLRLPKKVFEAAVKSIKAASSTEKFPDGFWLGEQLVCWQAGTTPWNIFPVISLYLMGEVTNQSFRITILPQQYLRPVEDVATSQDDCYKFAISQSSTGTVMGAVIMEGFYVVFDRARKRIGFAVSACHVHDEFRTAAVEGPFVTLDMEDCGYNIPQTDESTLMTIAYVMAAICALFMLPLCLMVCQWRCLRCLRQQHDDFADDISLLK

Take `CC(=O)Nc1c(Cl)cc(CN/C(N)=N/C(=O)Cc2c(C)[nH]c3ccccc23)cc1Cl` [Example 11, N-(2,6-Dichloro-4-{N′-[2-(2-methyl-1H-indol-3-yl)-acetyl]-guanidinomethyl}-phenyl)-acetamide]: the 50% inhibitory concentration (IC50) lay in the range of 100 to 1000 nM.
For `CC(=O)Nc1c(Cl)cc(CN/C(N)=N/C(=O)Cc2c(C)[nH]c3ccc(F)cc23)cc1Cl` [Example 21] the value was 100 to 1000 nM; for `COc1ccc2[nH]cc(CC(=O)/N=C(\N)NCc3cc(Cl)cc(Cl)c3)c2c1` [Example 3, N-(3,5-Dichloro-benzyl)-N′-[2-(5-methoxy-1H-indol-3-yl)-acetyl]-guanidine], above 1000 nM.
For `CC(=O)Nc1c(Cl)cc(CN/C(N)=N/C(=O)Cc2c(C(=O)NC(C)(C)C)[nH]c3ccc(Br)cc23)cc1Cl` [Example 24, 3-{2-[N′-(4-Acetylamino-3,5-dichloro-benzyl)-guanidino]-2-oxo-ethyl}-5-bromo-1H-indole-2-carboxylic acid tert-butylamide] the value was below 100 nM; for `N/C(=N\C(=O)Cc1c[nH]c2ccc(Br)cc12)NCc1cc(Cl)c(N)c(Cl)c1` [Example 17, N-(4-Amino-3,5-dichloro-benzyl)-N′-[2-(5-bromo-1H-indol-3-yl)-acetyl]-guanidine], above 1000 nM.
On to `CC(=O)Nc1c(Cl)cc(CN/C(N)=N/C(=O)Cc2c[nH]c3ccc(OCc4ccccc4)cc23)cc1Cl` [Example 13, N-(4-{N′-[2-(5-Benzyloxy-1H-indol-3-yl)-acetyl]-guanidinomethyl}-2,6-dichloro-phenyl)-acetamide], for which the IC50 was above 1000 nM.
The same measure for `CC(=O)Nc1c(Cl)cc(CN/C(N)=N/C(=O)Cc2c[nH]c3ccc(F)cc23)cc1Cl` [Example 12, N-(2,6-Dichloro-4-{N′-[2-(5-fluoro-1H-indol-3-yl)-acetyl]-guanidinomethyl}-phenyl)-acetamide]: 100 to 1000 nM.
The same measure for `CC(=O)Nc1c(Cl)cc(CN/C(N)=N/C(=O)Cc2c[nH]c3cc(F)ccc23)cc1Cl` [Example 16, N-(2,6-Dichloro-4-{N′-[2-(6-fluoro-1H-indol-3-yl)-acetyl]-guanidinomethyl}-phenyl)-acetamide]: 100 to 1000 nM; for `COc1ccc2[nH]c(C)c(CC(=O)/N=C(\N)NCc3cc(Cl)c(NC(C)=O)c(Cl)c3)c2c1` [Example 10, N-(2,6-Dichloro-4-{N′-[2-(5-methoxy-2-methyl-1H-indol-3-yl)-acetyl]-guanidinomethyl}-phenyl)-acetamide]: 100 to 1000 nM; for `COc1ccc2[nH]cc(CC(=O)/N=C(\N)NCc3cc(C)c(NC(C)=O)c(Cl)c3)c2c1` [Example 9, N-(2-Chloro-4-{N′-[2-(5-methoxy-1H-indol-3-yl)-acetyl]-guanidinomethyl}-6-methyl-phenyl)-acetamide]: 100 to 1000 nM.
Take `CC(=O)Nc1c(Cl)cc(CN/C(N)=N/C(=O)Cc2c[nH]c3ccc(Br)cc23)cc1Cl` [Example 20, N-(4-{N′-[2-(5-Bromo-1H-indol-3-yl)-acetyl]-guanidinomethyl}-2,6-dichloro-phenyl)-acetamide]: the IC50 is below 100 nM.
The same measure for `CN1CCN(c2ccc(CN/C(N)=N/C(=O)Cc3c[nH]c4ccc(Br)cc34)cc2Cl)CC1` [Example 19, N-[2-(5-Bromo-1H-indol-3-yl)-acetyl]-N′-[3-chloro-4-(4-methyl-piperazin-1-yl)-benzyl]-guanidine]: above 1000 nM.
Regarding `N/C(=N\C(=O)Cc1cn(Cc2ccc(F)cc2)c2ccccc12)NCc1cc(Cl)c(N)c(Cl)c1` [Example 6, N-((4-amino-3,5-dichlorobenzylamino)(amino)methylene)-2-(1-(4-fluorobenzyl)-1H-indol-3-yl)acetamide], the IC50 is above 1000 nM.
In the case of `CC(=O)Nc1c(Cl)cc(CN/C(N)=N/C(=O)Cc2c(C#N)[nH]c3ccc(Br)cc23)cc1Cl` [Example 25, N-(4-{N′-[2-(5-Bromo-2-cyano-1H-indol-3-yl)-acetyl]-guanidinomethyl}-2,6-dichloro-phenyl)-acetamide], the IC50 is below 100 nM.
The same measure for `Cn1cc(CC(=O)/N=C(\N)NCc2cc(Cl)c(N)c(Cl)c2)c2ccccc21` [Example 5, N-((4-amino-3,5-dichlorobenzylamino)(amino)methylene)-2-(1-methyl-1H-indol-3-yl)acetamide]: above 1000 nM; for `CC(C(=O)/N=C(\N)NCc1cc(Cl)c(N)c(Cl)c1)c1c[nH]c2ccccc12` (stereo not shown) [Example 8, N-((4-amino-3,5-dichlorobenzylamino)(amino)methylene)-2-(1H-indol-3-yl)propanamide]: above 1000 nM; for `N/C(=N\C(=O)Cc1c[nH]c2ccc(F)cc12)NCc1cc(Cl)cc(Cl)c1` [Example 4, N-(3,5-Dichloro-benzyl)-N′-[2-(5-fluoro-1H-indol-3-yl)-acetyl]-guanidine]: above 1000 nM.
The same measure for `CC(=O)Nc1c(Cl)cc(CN/C(N)=N/C(=O)Cc2c[nH]c3ccc(O)cc23)cc1Cl` [Example 14, N-(2,6-Dichloro-4-{N′-[2-(5-hydroxy-1H-indol-3-yl)-acetyl]-guanidinomethyl}-phenyl)-acetamide]: 100 to 1000 nM.
Turning to `CC(=O)Nc1c(Cl)cc(CN/C(N)=N/C(=O)Cc2c[nH]c3cc(OCc4ccccc4)ccc23)cc1Cl` [Example 15, N-(4-{N′-[2-(6-Benzyloxy-1H-indol-3-yl)-acetyl]-guanidinomethyl}-2,6-dichloro-phenyl)-acetamide], the IC50 is 100 to 1000 nM.
Consider `CN1CCN(c2ccc(CN/C(N)=N/C(=O)Cc3c[nH]c4ccc(Br)cc34)cc2)CC1` [Example 18, N-[2-(5-Bromo-1H-indol-3-yl)-acetyl]-N′-[4-(4-methyl-piperazin-1-yl)-benzyl]-guanidine], for which the IC50 is above 1000 nM.
For `COc1ccc2[nH]cc(CC(=O)/N=C(\N)NCc3cc(Cl)c(NC(C)=O)c(Cl)c3)c2c1` [Example 2, N-(2,6-Dichloro-4-{N′-[2-(5-methoxy-1H-indol-3-yl)-acetyl]-guanidinomethyl}-phenyl)-acetamide] the value was 100 to 1000 nM.
Regarding `CC(=O)Nc1c(Cl)cc(CN/C(N)=N/C(=O)Cc2c[nH]c3ccc(C#N)cc23)cc1Cl` [Example 23, N-(4-{N′-[2-(5-Cyano-1H-indol-3-yl)-acetyl]-guanidinomethyl}-2,6-dichloro-phenyl)-acetamide], the IC50 is below 100 nM.
The same measure for `COc1ccc2[nH]cc(CC(=O)/N=C(\N)NCc3cc(Cl)c(N)c(Cl)c3)c2c1` [Example 7, N-((4-amino-3,5-dichlorobenzylamino)(amino)methylene)-2-(5-methoxy-1H-indol-3-yl)acetamide]: above 1000 nM.
For `CC(=O)Nc1c(Cl)cc(CN/C(N)=N/C(=O)Cc2c[nH]c3cc(Br)ccc23)cc1Cl` [Example 1, N-(4-{N′-[2-(6-Bromo-1H-indol-3-yl)-acetyl]-guanidinomethyl}-2,6-dichloro-phenyl)-acetamide] the value was 100 to 1000 nM.
For `CC(=O)Nc1c(Cl)cc(CN/C(N)=N/C(=O)Cc2c(C)[nH]c3c(F)cccc23)cc1Cl` [Example 22, N-(2,6-Dichloro-4-{N′-[2-(7-fluoro-2-methyl-1H-indol-3-yl)-acetyl]-guanidinomethyl}-phenyl)-acetamide] the value was 100 to 1000 nM.
